Source: patent US20210393616A1, “PHARMACEUTICAL COMPOSITIONS AND METHODS FOR TREATING PSYCHOSIS” (UNIVERSITA' DEGLI STUDI DI CAGLIARI, priority 2018, published 2021)

Columns and labels:
D2 receptors = assay: Contractility of the rabbit ear artery, antagonism of the selective D2 agonist quinpirol; conditions: for antagonism of the effect of the selective D2 agonist quinpirol: 100 nM
rats [1] = assay: Amphetamine-induced hypermotility test; format: in vivo, rat; conditions: 3 mg/kg i.p.; amphetamine 2.5 mg/kg i.p.; FIG. 1
Experimental: Some behavioural tests were also conducted to identify possible antipsychotic properties of RS-79948-197.

human D2long receptor = target: T1, human D2long receptor (Homo sapiens, UniProt P14416); assay: Replacement of [3H]methyl-spiperone binding from human D2long receptor expressed by HEK-293 cells
T1 construct: expressed in transfected cells; host or cells: HEK-293
Experimental: In particular, the receptor binding study was conducted by analysing the ability to replace the binding of [^3H]methyl-spiperone from the human D2long receptor expressed by HEK-293 cells (Hall, D. A. and Strange, P. G., 1997, Brit. J. Pharmacol. 121:731-736).

[2] = system: extracellular levels of dopamine; assay: Microdialysis of extracellular dopamine in rat medial prefrontal cortex; format: in vivo; conditions: free-moving rats, RS-79948-197 3 mg/kg i.p., clozapine 2.5 mg/kg i.p., FIG. 4
Experimental: The drugs were administered at time T=60 min, as indicated by the arrow. The values are expressed as a percentage of the basal value (mean+/−SEM).
Also, the effect of RS-79948-197 on the extracellular levels of dopamine in the rat prefrontal cerebral cortex, through microdialysis in free-moving rats, was further evaluated. As can be clearly seen in the appended FIG. 4, the effects of the two drugs are substantially overlapping, as both have increased the extracellular concentration of dopamine up to about 250% of the respective basal value. Given the hypothesis of cortical hypodopaminergy in the etiopathogenesis of schizophrenia, the ability of a drug to increase the cortical dopamine is considered a favourable effect for its antipsychotic properties.

rats [3] = assay: Quinpirol-induced stereotypies; format: in vivo, rat
From the text: The data are the average of 6 rats and are expressed in total counts. *P<0.01 vs. treatment with physiological saline (Student's t-test).

rats [4] = assay: Pre-pulse inhibition (PPI) deficit induced by MK-801; format: in vivo, rat; conditions: RS-79948-197 3 mg/kg i.p.; MK-801 0.1 mg/kg i.p.; FIG. 3
Experimental: The data are the average of 4-8 rats. *P<0.05, **P<0.01 vs. VEH+MK (one-way ANOVA followed by Tukey's Test).
The activity of RS-79948-197 was also evaluated on the deficit of “pre-pulse inhibition” (PPI) induced by MK-801, an antagonist of NMDA receptors of glutamate. As already mentioned previously, this latter test is considered the “gold standard” for the evaluation of the possible atypical antipsychotic activity of a drug and is predictive of the efficacy on negative symptoms, as well as on positive ones, of schizophrenia.

T1 sequence (P14416 whole entry): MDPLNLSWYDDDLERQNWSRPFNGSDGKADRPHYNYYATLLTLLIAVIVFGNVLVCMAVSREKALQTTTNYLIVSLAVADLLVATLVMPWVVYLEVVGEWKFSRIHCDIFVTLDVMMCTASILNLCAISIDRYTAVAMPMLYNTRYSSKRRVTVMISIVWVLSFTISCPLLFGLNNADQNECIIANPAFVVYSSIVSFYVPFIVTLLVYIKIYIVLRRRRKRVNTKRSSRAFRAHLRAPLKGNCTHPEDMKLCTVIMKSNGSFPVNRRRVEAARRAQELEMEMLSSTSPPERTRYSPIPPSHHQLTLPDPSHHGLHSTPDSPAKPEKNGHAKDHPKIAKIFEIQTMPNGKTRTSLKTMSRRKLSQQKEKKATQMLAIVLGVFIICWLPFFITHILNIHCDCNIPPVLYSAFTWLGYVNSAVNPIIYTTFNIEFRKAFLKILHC

Row | antagonism of the effect of the selective D2 agonist quinpirol (D2 receptors) | effect on quinpirol-induced release at higher concentrations (D2 receptors; higher concentrations than 100 nM) | affinity relative to that of clozapine (human D2long receptor; human D2long receptor) | Ki (human D2long receptor; human D2long receptor expressed by HEK-293 cells, read-out: Ki, inhibition of [3H]methyl-spiperone binding) [nM] | Structure (SMILES) | total distance travelled by rats in 120 minutes (rats [1]) | extracellular concentration of dopamine, percentage of basal value [2] | stereotypies induced by quinpirol (rats [3]; 3 mg/kg i.p., quinpirol 0.5 mg/kg i.p., FIG. 2) | extrapyramidal effects per se (rats [3]; rats) | PPI deficit induced by MK-801 (rats [4])
1 | about 40% | – | – | – | CCN1CCCC1CNC(=O)c1cc(S(N)(=O)=O)ccc1OC (stereo not shown) [sulpiride, reference compound] | – | – | – | – | –
2 | 70% | completely cancelled | about twice | 95 | CCS(=O)(=O)N1CCC[C@@H]2CN3CCc4cc(OC)ccc4[C@@H]3C[C@@H]21.Cl [RS-79948-197, (8aR,12aS,13aS)-5,8,8a,9,10, 11, 12, 12a, 13, 13a-decahydro-3-methoxy-12-(ethylsulphonyl)-6H-isoquino[2,1-g][1,6]naphthyridine] | significantly decreased | about 250 % of the respective basal value | effectively reduced | without inducing per se extrapyramidal effects | effectively reduced
